According to patent US20230019280A1, “SUBSTITUTED ISOINDOLONYL 2,2'-BIP[…], ANALOGUES THEREOF, AND METHODS USING SAME” (priority 2019, published 2023):

The compounds below were run on HBsAg (assay: HBsAg assay (inhibition of HBsAg in HepG2.2.15 cells)). Conditions: Hepatitis B virus, HepG2.2.15, 144 h, read-out: sAg EC50, HepG2.2.15 cells; supernatant HBsAg by CLIA at day 6 after exposure of compounds.
Type: cell-based, hepatitis B virus
Protocol: Inhibition of HBsAg was determined in HepG2.2.15 cells. Cells were maintained in culture medium containing 10% fetal calf serum, […], Glutamine, penicillin/streptomycin. Cells were seeded in 96-well collagen-coated plate at a density of 30,000 cells/well. Serially diluted compounds were added to cells next day at the final DMSO concentration of 0.5%. Cells were incubated with compounds for 2-3 days, after which medium was removed. Fresh medium containing compounds was added to cells for additional 3-4 days. At day 6 after exposure of compounds, supernatant was collected, the HBsAg immunoassay (microplate-based chemiluminescence immunoassay kits, CLIA, Autobio Diagnosics Co., Zhengzhou, China, Catalog #CL0310-2) was used to determine the level of HBsAg according to manufactory instruction. Dose-response curves were generated and the EC50 value (effective concentrations that achieved 50% inhibitory effect) were determined using XLfit software. In addition, cells were seeded at a density of 5,000 cells/well for determination of cell viability in the presence and absence of compounds by using CellTiter-Glo reagent (Promega).
Work on `COc1cc2c(cc1OC)C(c1ccc3c(c1)OCCO3)N(c1ccnc(-c3ncccn3)n1)C2=O` (stereo not shown) [Example 26, 2-([2,2′-Bipyrimidin]-4-yl)-3-(2,3-dihydrobenzo[b][1,4]dioxin-6-yl)-5,6-dimethoxyisoindolin-1-one] yielded an EC50 of 18 nM. For `O=C1c2cc(F)c(F)cc2CN1c1ccnc(-c2ncccn2)n1` [Example 61, 2-([2,2′-Bipyrimidin]-4-yl)-5,6-difluoroisoindolin-1-one], the EC50 was 450 nM. `CCC1c2cc(F)c(OC(C)C)cc2C(=O)N1c1nc(-c2ncccn2)ncc1F` (single isomer, unassigned) [Example 57, 3-Ethyl-5-fluoro-2-(5-fluoro-[2,2′-bipyrimidin]-4-yl)-6-isopropoxyisoindolin-1-one] showed an EC50 of 110 nM. For `CCC1c2cc(OC)c(OC)cc2C(=O)N1c1ccnc(-c2ncccn2)n1` (stereo not shown) [Example 1, 2-([2,2′-Bipyrimidin]-4-yl)-3-ethyl-5,6-dimethoxyisoindolin-1-one], the EC50 was 27 nM. `CCC1c2cc(OC)c(OC)cc2C(=O)N1c1cccc(-c2ncccn2)n1` (stereo not shown) [Example 31, 3-Ethyl-5,6-dimethoxy-2-(6-(pyrimidin-2-yl)pyridin-2-yl)isoindolin-1-one] was tested, and the EC50 was 7000 nM. `COc1cc2c(cc1OC)C(C1CCOCC1)N(c1ccnc(-c3ncccn3)n1)C2=O` (stereo not shown) [Example 29, 2-([2,2′-Bipyrimidin]-4-yl)-5,6-dimethoxy-3-(tetrahydro-2H-pyran-4-yl)isoindolin-1-one] was tested, and the EC50 was 30 nM. With `COc1cc2c(cc1OC)C(=O)N(c1ccnc(-c3ncccn3)n1)C2` [Example 62, 2-([2,2′-Bipyrimidin]-4-yl)-5,6-dimethoxyisoindolin-1-one] the EC50 was 130 nM. `COc1cc2c(cc1OC)C(=O)N(c1ccnc(-c3ncccn3)n1)CC2` [Example 63, 2-([2,2′-Bipyrimidin]-4-yl)-6,7-dimethoxy-3,4-dihydroisoquinolin-1(2H)-one] showed an EC50 of 520 nM. `CCCC1c2cc(OC)c(OC)cc2C(=O)N1c1ccnc(-c2ncccn2)n1` (stereo not shown) [Example 38, 2-([2,2′-Bipyrimidin]-4-yl)-5,6-dimethoxy-3-propylisoindolin-1-one] gave an EC50 of 10 nM. In the case of `CCC1c2cc(OC)c(OC)cc2C(=O)N1c1cc(C)nc(-c2ncccn2)n1` (stereo not shown) [Example 36, 3-Ethyl-5,6-dimethoxy-2-(6-methyl-[2,2′-bipyrimidin]-4-yl)isoindolin-1-one], the EC50 is reported as 10000 nM. In the case of `COc1cc2c(cc1OC)CN(c1ccnc(-c3ncccn3)n1)C(=O)C2` [Example 65, 2-([2,2′-Bipyrimidin]-4-yl)-6,7-dimethoxy-1,4-dihydroisoquinolin-3(2H)-one], the EC50 is reported as 5000 nM.

Same assay, conditions: read-out: sAg EC50; HepG2.2.15 cells; supernatant HBsAg by CLIA at day 6 after exposure of compounds
`CCC1c2cc(OC)c(OC)cc2C(=O)N1c1cc(F)nc(-c2ncccn2)n1` (single isomer, unassigned) [Example 69, 3-Ethyl-2-(6-fluoro-[2,2′-bipyrimidin]-4-yl)-5,6-dimethoxyisoindolin-1-one] was tested, and the EC50 was 49000 nM. `COc1cc2c(cc1OC)C(CC(C)C)N(c1ccnc(-c3ncccn3)n1)C2=O` (single isomer, unassigned) [Example 40, 2-([2,2′-bipyrimidin]-4-yl)-3-isobutyl-5,6-dimethoxyisoindolin-1-one] gave an EC50 of 10 nM. `CCC1c2cc(OC)c(C)cc2C(=O)N1c1ccnc(-c2ncccn2)n1` (single isomer, unassigned) [Example 5, 2-([2,2′-Bipyrimidin]-4-yl)-3-ethyl-5-methoxy-6-methylisoindolin-1-one] was tested, and the EC50 was 1000 nM. Compound `COc1cccc(C2c3cc(OC)c(OC)cc3C(=O)N2c2ccnc(-c3ncccn3)n2)c1` (single isomer, unassigned) [Example 12, 2-([2,2′-Bipyrimidin]-4-yl)-5,6-dimethoxy-3-(3-methoxyphenyl)isoindolin-1-one] has an EC50 of 5 nM. With `CCC1c2cc(OC)c(OC)cc2C(=O)N1c1ccnc(-c2ncccn2)c1` (single isomer, unassigned) [Example 33, 3-Ethyl-5,6-dimethoxy-2-(2-(pyrimidin-2-yl)pyridin-4-yl)isoindolin-1-one] the EC50 was 7 nM. Compound `CCC1c2cc(OC)c(OC)cc2C(=O)N1c1ccnc(-c2ncccn2)n1` (single isomer, unassigned) [Example 2, 2-([2,2′-Bipyrimidin]-4-yl)-3-ethyl-5,6-dimethoxyisoindolin-1-one] has an EC50 of 13 nM. Work on `CCC1c2cc(OC)c(OC)cc2C(=O)N1c1nc(-c2ncccn2)ncc1F` (single isomer, unassigned) [Example 66, 3-Ethyl-2-(5-fluoro-[2,2′-bipyrimidin]-4-yl)-5,6-dimethoxyisoindolin-1-one] yielded an EC50 of 34 nM. In the case of `COc1cccc(C2c3cc(OC)c(OC)cc3C(=O)N2c2ccnc(-c3ncccn3)n2)c1` (single isomer, unassigned) [Example 13, 2-([2,2′-Bipyrimidin]-4-yl)-5,6-dimethoxy-3-(3-methoxyphenyl)isoindolin-1-one], the EC50 is reported as 1000 nM. Work on `CCC1c2cc(OC)c(F)cc2C(=O)N1c1ccnc(-c2ncccn2)n1` (single isomer, unassigned) [Example 52, 2-([2,2′-Bipyrimidin]-4-yl)-3-ethyl-6-fluoro-5-methoxyisoindolin-1-one] yielded an EC50 of 400 nM. `COc1cc2c(cc1OC)C(CCC(F)(F)F)N(c1ccnc(-c3ncccn3)n1)C2=O` (single isomer, unassigned) [Example 17, 2-([2,2′-Bipyrimidin]-4-yl)-5,6-dimethoxy-3-(3,3,3-trifluoropropyl)isoindolin-1-one] gave an EC50 of 20 nM. Work on `COc1cc2c(cc1OC)C(CC(C)C)N(c1ccnc(-c3ncccn3)n1)C2=O` (single isomer, unassigned) [Example 41, 2-([2,2′-Bipyrimidin]-4-yl)-3-isobutyl-5,6-dimethoxyisoindolin-1-one] yielded an EC50 of 1000 nM. For `COc1cc2c(cc1OC)C(Cc1ccccc1)N(c1ccnc(-c3ncccn3)n1)C2=O` (single isomer, unassigned) [Example 15, 2-([2,2′-Bipyrimidin]-4-yl)-3-benzyl-5,6-dimethoxyisoindolin-1-one], the EC50 was 40000 nM. `COc1cc2c(cc1OC)C(c1ccccc1)N(c1ccnc(-c3ncccn3)n1)C2=O` (single isomer, unassigned) [Example 43, 2-([2,2′-Bipyrimidin]-4-yl)-5,6-dimethoxy-3-phenylisoindolin-1-one] showed an EC50 of 1 nM. `COc1cc2c(cc1OC)C(Cc1ccccc1)N(c1ccnc(-c3ncccn3)n1)C2=O` (single isomer, unassigned) [Example 14, 2-([2,2′-Bipyrimidin]-4-yl)-3-benzyl-5,6-dimethoxyisoindolin-1-one] showed an EC50 of 100 nM. Work on `CCC1c2cc(OC)c(OC)cc2C(=O)N1c1ccnc(-c2ncc(F)cn2)n1` (single isomer, unassigned) [Example 72, 3-Ethyl-2-(5′-fluoro-[2,2′-bipyrimidin]-4-yl)-5,6-dimethoxyisoindolin-1-one] yielded an EC50 of 39 nM. Work on `CCC1c2cc(OC)c(OC)cc2C(=O)N1c1ccnc(-c2ncccn2)c1` (single isomer, unassigned) [Example 34, 3-Ethyl-5,6-dimethoxy-2-(2-(pyrimidin-2-yl)pyridin-4-yl)isoindolin-1-one] yielded an EC50 of 62 nM. In the case of `CCC1c2cc(F)c(OC)cc2C(=O)N1c1ccnc(-c2ncccn2)n1` (single isomer, unassigned) [Example 50, 3-Ethyl-5-fluoro-6-methoxy-2-(2-pyrimidin-2-ylpyrimidin-4-yl)isoindolin-1-one], the EC50 is reported as 480 nM.
